Reference: patent US20130217050A1, “METHOD FOR DIAGNOSING ALZHEIMER'S DISEASE USING-SOLUBLE GPVI” (MOCHIDA PHARMACEUTICAL CO., LTD., priority 2010, published 2013)

Tested on: washed monkey platelets
Experiment: sGPVI production mechanism using monkey washed platelets
Type: cell-based
Conditions: stimulating agent added to washed platelet suspension with calcium chloride, 37° C. for 1 hour; sGPVI in supernatant by ELISA; compared with control group without stimulating agent (FIG. 8)
Procedure: Human serum and human plasma were prepared by a 100-fold or more dilution with 0.1% BSA, 0.05% Tween 20, and 0.3 M NaCl/D-PBS and added to the F1232-7-1-immobilized plate to incubate at 28° C. for 2 hours. In addition, a recombinant human sGPVI-His that was expressed and purified by Free Style 293 Expression System (manufactured by Invitrogen) was used as the reference material. After the reaction incubation, the plate was washed with physiological saline containing 0.05% Tween 20. F1232-10-2 Fab′-HRP prepared in Example 1 as a secondary labeled antibody was diluted 100-fold with 2% rat serum and 0.05% Tween 20/D-PBS and added to the well to incubate at 28° C. for 1 hour. After washing the plate, tetramethylbenzidine (hereinafter described as TMB) that was returned to room temperature was added, and incubated for 10 minutes. After stopping the reaction by the addition of 0.5 M sulfuric acid, the absorbance at 450 nm was measured using a microplate reader SpectraMax (manufactured by Molecular Devices), and the absorbance at 650 nm was subtracted as a reference. The resulting absorbance was analyzed using a microplate data analysis software (SoftMax Pro 5.2, manufactured by Molecular Devices). In addition, the data was expressed in terms of mean±standard error (SE) in principle.
Whole blood was collected from the monkey's leg vein using sodium citrate as an anticoagulant. Platelet-rich plasma (hereinafter described as PRP) was prepared by centrifuging the obtained whole blood at 900 rpm×10 minutes, and only PRP fraction was separated gently by PIPETMAN to transfer it to a new tube. The PRP was centrifuged at 2000 rpm×10 minutes at room temperature to precipitate the platelets. […] The number of platelets was counted by Sysmex F-820 (To a Medical Electronics Co., Ltd.), and the platelet count was adjusted to 40.0×10^7/ml. […]
The production of sGPVI was examined by adding various stimulating agents such as collagen, sAβ, or fAβ, to monkey washed platelets. […] The concentration of sGPVI in the reaction mixture was measured by the ELISA method as described in Example 2.

Substance	production of sGPVI
collagen	production of sGPVI was observed
fibril Aβ: Aβ1-42 incubated at room temperature for one week after the dilution in D-PBS, used as fibril amyloid β	production of sGPVI was observed
sAβ: Aβ1-42 (AnaSpec Inc) just after diluted in D-PBS, used as soluble amyloid β	production of sGPVI was not observed
